Laboratory results reported in patent US8754073B2, “Substituted piperazino-dihydrothienopyrimidines” (Boehringer Ingelheim International GmbH, priority 2007, dated 2014).

target: PDE4B (Homo sapiens, UniProt Q07343); experiment: Scintillation Proximity Assay (SPA) of PDE4B enzyme activity ([H3]-cAMP cleavage); format: biochemical; details: test substance 1 μM; one-hour incubation of [H3]-cAMP with PDE4B enzyme at 30° C.
Procedure: The inhibitions (in %) at 1 μM of the individual Example substances are given in the following Table of Examples and were determined as follows:
The Scintillation Proximity Assay (SPA) (GE Healthcare, No. TRKQ7090) was carried out by using the different affinities of cyclic 3′-5′-adenosinemonophosphate (cAMP, low affinity) and linear 5′-adenosinemonophosphate (AMP, high affinity) for yttrium silicate scintillator beads. The cAMP specific phosphodiesterase (PDE) PDE4B cleaves the 3′-phosphoester bond of tritium-labelled [H3]-cAMP to form [H3]-5′-AMP. This [H3]-AMP accumulates on the scintillator beads because of its higher affinity for them and causes scintillation events (flashes of light) which are measured in a Wallac Microbeta Scintillation Counter.
The experiment starts with a one-hour incubation of [H3]-cAMP with the PDE4B enzyme in assay buffer at 30° C., in each case once with the Example substance to be tested (in a concentration of 1 μM) and once without the Example substance to be tested.
After this incubation, the reaction is stopped by the addition of the beads. The beads have an opportunity to settle in the next 45 minutes, then the measurement is carried out in the Scintillation Counter. If the substance is capable of inhibiting the enzymatic activity of the PDE4B, less [H3]-AMP is produced during the incubation phase and fewer scintillation events can be measured.

Chain of PDE4B (Q07343 whole entry, species assumed): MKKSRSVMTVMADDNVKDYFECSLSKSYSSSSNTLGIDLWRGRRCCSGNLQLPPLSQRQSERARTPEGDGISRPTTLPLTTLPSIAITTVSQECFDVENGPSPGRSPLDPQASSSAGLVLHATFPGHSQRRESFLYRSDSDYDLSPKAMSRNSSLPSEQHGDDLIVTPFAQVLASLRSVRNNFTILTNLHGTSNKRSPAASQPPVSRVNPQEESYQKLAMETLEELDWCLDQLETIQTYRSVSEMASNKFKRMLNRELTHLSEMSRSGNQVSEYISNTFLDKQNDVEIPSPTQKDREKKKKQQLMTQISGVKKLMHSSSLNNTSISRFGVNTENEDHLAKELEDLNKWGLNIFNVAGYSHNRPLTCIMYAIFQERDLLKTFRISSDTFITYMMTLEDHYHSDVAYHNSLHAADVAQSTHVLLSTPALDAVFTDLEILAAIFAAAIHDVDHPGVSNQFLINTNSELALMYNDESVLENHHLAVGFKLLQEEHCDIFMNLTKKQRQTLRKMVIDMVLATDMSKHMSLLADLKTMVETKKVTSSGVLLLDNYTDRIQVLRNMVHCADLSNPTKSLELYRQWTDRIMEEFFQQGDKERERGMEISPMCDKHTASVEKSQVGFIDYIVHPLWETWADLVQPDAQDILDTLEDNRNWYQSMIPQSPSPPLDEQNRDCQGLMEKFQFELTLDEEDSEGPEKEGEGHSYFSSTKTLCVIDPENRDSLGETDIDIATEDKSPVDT

Point of comparison: `[O-][S+]1CCc2nc(N3CCC(c4c[nH]c5ccccc45)CC3)nc(Nc3cccc(F)c3)c21` (stereo not shown) [Example 71], inhibition at 1 µM 96%. Against it:
- CN1C[C@@H](Nc2nc(N3CCC(c4ccc(Cl)cc4)CC3)nc3c2S(=O)(=O)CC3)CCC1=O [Example 335, 5-{2-[4-(4-chlorophenyl)-piperidin-1-yl]-5.5-dioxo-6,7-dihydro-5H-5λ^6-thieno[3,2-d]pyrimidin-4-ylamino}-1-methylpiperidin-2-one] — lower, 85%
- [O-][S+]1CCc2nc(N3CCC(c4cccc(Br)c4)CC3)nc(NC3(CO)CC3)c21 (stereo not shown) [Example 94] — lower, 94%
- CC(C)(O)[C@H](Nc1nc(N2CCC(c3ccc(Cl)cc3)CC2)nc2c1[S+]([O-])CC2)c1ccc(F)cc1 (stereo partly drawn) [Example 4, (R)-1-{2-[4-(4-chlorophenyl)-piperidin-1-yl]-5-oxo-6,7-dihydro-5H-5λ^4-thieno[3,2-d]pyrimidin-4-ylamino}-1-(4-fluorophenyl)-2-methylpropan-2-ol] — lower, 91%
- [O-][S+]1CCc2nc(N3CCC4(CC3)OCc3ccccc34)nc(NC3CCOCC3)c21 (stereo not shown) [Example 125] — lower, 74%
- COc1ccc(C2CCN(c3nc4c(c(N[C@@H](CO)C(C)C)n3)[S+]([O-])CC4)CC2)cc1 (stereo partly shown) [Example 148] — lower, 93%
- COC(=O)c1ccc(C2CCN(c3nc4c(c(NC5(CO)CC5)n3)[S+]([O-])CC4)CC2)cc1 (stereo not shown) [Example 103] — lower, 95%
- [O-][S+]1CCc2nc(N3CCC(c4nc(-c5ccncc5)no4)CC3)nc(NC3(CO)CC3)c21 (stereo not shown) [Example 116] — lower, 94%
- [O-][S+]1CCc2nc(N3CCC(c4nnc5ccccn45)CC3)nc(NC3CCOCC3)c21 (stereo not shown) [Example 124] — lower, 89%
- N#CC1(c2ccccc2)CCN(c2nc3c(c(NC4CCOCC4)n2)[S+]([O-])CC3)CC1 (stereo not shown) [Example 70] — lower, 95%
- [O-][S+]1CCc2nc(N3CCC(c4noc5ccc(F)cc45)CC3)nc(NC3CCOCC3)c21 (stereo not shown) [Example 122] — the same, 96%
- [O-][S+]1CCc2nc(N3CCC(c4nc5ccccc5o4)CC3)nc(NC3(CO)CC3)c21 (stereo not shown) [Example 98, {1-[2-(4-Benzoxazol-2-Yl-Piperidin-1-Yl)-5-Oxo-6,7-Dihydro-5H-5λ^4-Thieno[3,2-d]Pyrimidin-4-Ylamino]-Cyclopropyl}-Methanol] — higher, 97%
- [O-][S+]1CCc2nc(N3CCC(c4cc(-c5ccco5)n[nH]4)CC3)nc(Nc3cccc(F)c3)c21 (stereo not shown) [Example 145, (3-Fluorophenyl)-{2-[4-(5-Furan-2-Yl-2H-Pyrazol-3-Yl)-Piperidin-1-Yl]-5-Oxo-6,7-Dihydro-5H-5λ^4-Thieno[3,2-d]Pyrimidin-4-Yl}-Amine Trifluoracetat] — the same, 96%
- N#Cc1ccc(C2CCN(c3nc4c(c(NC5(CO)CC5)n3)[S+]([O-])CC4)CC2)cc1 (stereo not shown) [Example 35] — lower, 95%
- O=S1(=O)CCc2nc(N3CCC(c4ccc(Cl)cc4)CC3)nc(NC3CCOCC3)c21 [Example 334, {2-[4-(4-chlorophenyl)-piperidin-1-yl]-5.5-dioxo-6,7-dihydro-5H-5λ^6-thieno[3,2-d]pyrimidin-4-yl}-(tetrahydropyran-4-yl)-amine] — lower, 65%

same assay, conditions: test substance 1 μM; one-hour incubation with [H3]-cAMP at 30° C.

Point of comparison: `[O-][S+]1CCc2nc(N3CCC(COCc4ccccc4)(c4ccc(Cl)cc4)CC3)nc(Nc3cccc(F)c3)c21` (stereo not shown) [Example 306, {2-[4-benzyloxymethyl-4-(4-chlorophenyl)-piperidin-1-yl]-5-oxo-6,7-dihydro-5H-5λ^4-thieno[3,2-d]pyrimidin-4-yl}-(3-fluorophenyl)-amine], inhibition at 1 µM 89%. Against it:
- COC1(c2ccc(Cl)cc2)CCN(c2nc3c(c(NC4CCOCC4)n2)[S+]([O-])CC3)CC1 (stereo not shown) [Example 313] — the same, 89%
- [O-][S+]1CCc2nc(N3CCC(c4nc5ncncc5[nH]4)CC3)nc(NC3CCOCC3)c21 (stereo not shown) [Example 208] — lower, 82%
- CN1CCC(N(C)C(=O)c2ccc(OC3CCN(c4nc5c(c(NC6CCOCC6)n4)[S+]([O-])CC5)CC3)cc2)CC1 (stereo not shown) [Example 241] — higher, 93%
- CN1C[C@@H](Nc2nc(N3CCC(c4cc(-c5cccs5)[nH]n4)CC3)nc3c2[S+]([O-])CC3)CCC1=O (stereo partly shown) [Example 286] — the same, 89%
- [O-][S+]1CCc2nc(N3CCC(Oc4ccccn4)CC3)nc(NC3CCOCC3)c21 (stereo not shown) [Example 173] — higher, 95%
- CN(C(=O)c1ccc(C2CCN(c3nc4c(c(NC5CCOCC5)n3)[S+]([O-])CC4)CC2)cc1)C1CC1 (stereo not shown) [Example 229, N-cyclopropyl-N-methyl-4-{1-[5-oxo-4-(tetrahydropyran-4-ylamino)-6,7-dihydro-5H-5λ^4-thieno[3,2-d]pyrimidin-2-yl]-piperidin-4-yl}-benzamide] — higher, 94%
- CN(C(=O)c1cccc(C2CCN(c3nc4c(c(NC5CCOCC5)n3)[S+]([O-])CC4)CC2)c1)C1CCOCC1 (stereo not shown) [Example 256] — higher, 91%
- CC(C)c1noc(C2CCN(c3nc4c(c(N[C@H]5CCC(=O)N(C)C5)n3)[S+]([O-])CC4)CC2)n1 (stereo partly shown) [Example 189] — higher, 97%
- CC(C)(NC(=O)c1cccc(C2CCN(c3nc4c(c(NC5CCOCC5)n3)[S+]([O-])CC4)CC2)c1)c1ccncc1 (stereo not shown) [Example 255] — higher, 93%
- CCN(CC)CCOc1ccc(OC2CCN(c3nc4c(c(NC5CCOCC5)n3)[S+]([O-])CC4)CC2)cc1 (stereo not shown) [Example 178, (2-{4-[4-(2-diethylamino-ethoxy)-phenoxy]-piperidin-1-yl}-5-oxo-6,7-dihydro-5H-5λ^4-thieno[3,2-d]pyrimidin-4-yl)-(tetrahydropyran-4-yl)-amine] — higher, 92%
- [O-][S+]1CCc2nc(N3CCC(c4nc(-c5ccccc5)no4)CC3)nc(NC3CCOCC3)c21 (stereo not shown) [Example 312] — higher, 92%
- CC(C)[C@H](CO)Nc1nc(N2CCC(C(=O)c3ccc(F)cc3)(c3ccc(F)cc3)CC2)nc2c1[S+]([O-])CC2 (stereo partly shown) [Example 298] — higher, 91%
- Cn1c(C2CCN(c3nc4c(c(NC5CCOCC5)n3)[S+]([O-])CC4)CC2)nc2cnccc21 (stereo not shown) [Example 210, {2-[4-(1-methyl-1H-imidazo[4,5-c]pyridin-2-yl)-piperidin-1-yl]-5-oxo-6,7-dihydro-5H-5λ^4-thieno[3,2-d]pyrimidin-4-yl}-(tetrahydropyran-4-yl)-amine] — lower, 85%
- CN1C[C@@H](Nc2nc(N3CCC(c4cc(-c5ccco5)n[nH]4)CC3)nc3c2[S+]([O-])CC3)CCC1=O (stereo partly shown) [Example 190] — higher, 97%
- [O-][S+]1CCc2nc(N3CCC(Oc4ccc(Cl)c(Cl)c4)CC3)nc(NC3CCOCC3)c21 (stereo not shown) [Example 181] — higher, 92%
- CN(C(=O)c1ccc(OC2CCN(c3nc4c(c(NC5CCOCC5)n3)[S+]([O-])CC4)CC2)cc1)C1CCOCC1 (stereo not shown) [Example 237] — higher, 95%
- Cn1nc(C2CCN(c3nc4c(c(NC5CCOCC5)n3)[S+]([O-])CC4)CC2)cc1-c1ccco1 (stereo not shown) [Example 198, {2-[4-(5-furan-2-yl-1-methyl-1H-pyrazol-3-yl)-piperidin-1-yl]-5-oxo-6,7-dihydro-5H-5λ^4-thieno[3,2-d]pyrimidin-4-yl}-(tetrahydropyran-4-yl)-amine] — higher, 94%
- [O-][S+]1CCc2nc(N3CCC(Oc4ccc(F)cc4)CC3)nc(Nc3cccc(F)c3)c21 (stereo not shown) [Example 165] — higher, 92%
